In PMC12040169 (PLOS Biology, 2025):

test: in vitro; details: human, hela cells, % viability

SMILES	viability at 28.5 h, 10 µM [%]
FC(F)CN1CCN(Cc2ccc(Oc3cnccn3)cc2)CC1 [CBK306399]	101
CC(=O)Nc1c[nH]nc1C1CCCN(c2cccc(F)c2C#N)C1 (centres unmarked) [CBK306401]	97.2
CC(C)c1nc(NCc2nnc(C(C)C)n2C)nc(N(C)C)n1 [CBK306402]	104
Cc1noc(CN2CCNC(=O)C2c2ccccc2C(F)(F)F)n1 (centres unmarked) [CBK306405]	98.2
CCNC(=O)Nc1c[nH]nc1C1CCCN(c2cccc(F)c2C#N)C1 (centres unmarked) [CBK306406]	86.5
Cn1cc(CN2CCNC(=O)C2c2ccccc2C(F)(F)F)cn1 (centres unmarked) [CBK306407]	90.4
Cc1nc(-c2cc3c(s2)CCN(Cc2ccc(CO)o2)C3)cs1 [CBK306411]	90
N#Cc1ccc(NCC(=O)Nc2ncccc2O)cc1 [CBK306413]	88.7
Cc1cc(S(=O)(=O)Nc2ccccc2-c2nncn2C)c(C)o1 [CBK306414]	85.9
Cn1ccnc1CN1CCNC(=O)C1c1ccccc1C(F)(F)F (centres unmarked) [CBK306415]	85.1
c1cnc(Oc2ccc(CN3CCCC(c4cn[nH]c4)C3)cc2)cn1 (centres unmarked) [CBK306416]	86.6
Cc1ccsc1C(C)NC1CCCN(c2ccn(C)n2)C1=O (centres unmarked) [CBK306419]	106
Cc1cc(C(=O)N2CCc3c(sc4ncnc(N)c34)C2)sc1C [CBK306420]	99.4
Cc1cc(C)n(CC(=O)N2CCNC(=O)C2c2ccccc2Cl)n1 (centres unmarked) [CBK306421]	92.6
Cn1nccc1CN1CCNC(=O)C1c1ccccc1C(F)(F)F (centres unmarked) [CBK306422]	86.9
CC1CN(c2cc(CNc3nc4ccccn4c3C#N)ccn2)CCO1 (centres unmarked) [CBK306423]	78.7
CC(=O)Nc1ccc(CNc2nnc(C3CCCCC3)o2)cc1 [CBK306427]	105
Cc1noc(C)c1CC(=O)Nc1nc2c(cc1C#N)CCCC2 [CBK306429]	97.1
N#Cc1c[nH]c(C(=O)NC2CCN(C(=O)c3ccccc3)CC2)c1 [CBK306433]	91
CCNS(=O)(=O)c1ccc2c(c1)N(Cc1n[nH]c(CC)n1)CC2 [CBK306434]	86.9
Cn1cc(CC(=O)Nc2nc3c(cc2C#N)CCCC3)cn1 [CBK306436]	90.7
O=c1scnn1Cc1nc(-c2ccsc2)no1 [CBK306438]	83.4
Cc1c(CNc2nnc(C(C)(C)C)o2)cnn1C [CBK306439]	83.5

SMILES	viability at 28.5 h, 10 µM [%]
CC(C)c1noc(NCCc2cn3c(n2)CCCC3)n1 [CBK306444]	93.5
Cc1c(C(C)NCC(C)(C)N(C)C)cnn1-c1ccc(C#N)cc1 (centres unmarked) [CBK306447]	87.7
CNC(=O)CC1CCN(c2cc(C#N)ccc2C(F)(F)F)CC1 [CBK306450]	112
CC1CN(c2cc(CNc3ncccc3Cl)ccn2)CCO1 (centres unmarked) [CBK306456]	88.3
CCOC(=O)c1cnn(C2CCCN(c3ccc(C#N)nc3)C2)c1 (centres unmarked) [CBK306458]	113
CCc1ccc2c(c1)C(CCNC(=O)c1sccc1C)C(=O)N2 (centres unmarked) [CBK306459]	88.5
O=C(NCCc1cccnc1)Nc1ccc(CN2CCCC2=O)cc1 [CBK306461]	80
Cc1c(C(C)NCC(O)c2ccco2)cnn1-c1ccc(C#N)cc1 (centres unmarked) [CBK306462]	88.4
O=C(Cn1cnnn1)NCc1cccnc1OCC(F)(F)F [CBK306467]	96.1
CCC(=O)Nc1ccc(-c2csc(N3CCSCC3)n2)cc1 [CBK306469]	87
CC1CCN(S(=O)(=O)c2ccc(S(=O)(=O)Nc3ncnn3C)cc2)CC1 [CBK306470]	92.3
CC(CN(C)C(=O)c1nc(=O)[nH][nH]1)Oc1ccc(Cl)c(Cl)c1 (centres unmarked) [CBK306471]	87.9
Cc1c(C(=O)N2CCNC(=O)C2C(C)C)cnn1-c1ccc(Br)cc1 (centres unmarked) [CBK306472]	91.5
CCc1nn2c(=O)cc(CN3CCN(C(=O)c4cccs4)CC3)nc2s1 [CBK306474]	108
Cc1ccc(C#N)cc1S(=O)(=O)NC(=O)CC1CCOc2ccccc21 (centres unmarked) [CBK306476]	85.5
CC1(C)CCCCC1CC(=O)NS(=O)(=O)c1cccc(-c2nnco2)c1 (centres unmarked) [CBK306477]	79.3
COCCn1c(SC(C)C(=O)OC)nc2ccc(Br)cc2c1=O (centres unmarked) [CBK306479]	88.5
CCCc1nnc(SC(C)C(=O)N2CCCc3ccccc32)[nH]1 (centres unmarked) [CBK306480]	90
CN(CC(=O)O)C(=O)c1ccc(Oc2cccc(Br)c2)nc1 [CBK306485]	90.7
CCc1c[nH]c(SCC(=O)c2cc(C)n(C3CCS(=O)(=O)C3)c2C)n1 (centres unmarked) [CBK306486]	83.5
CCC(C)CC(=O)NS(=O)(=O)c1cc(C#N)ccc1C (centres unmarked) [CBK306487]	88.1
COCCn1c(SCc2cn3c(C)cc(C)nc3n2)nc(C)c1C [CBK306489]	89.3
CCOC(=O)c1csc(C2CCCN2C(=O)c2cc(SC)ccc2Cl)n1 (centres unmarked) [CBK306491]	88

SMILES	viability at 28.5 h, 10 µM [%]
COc1ccccc1CC(=O)NC(CCSC)c1nnc2ccccn12 (centres unmarked) [CBK306492]	92.1
CS(=O)(=O)c1ccc2ncnc(NCC(CO)Cc3ccccn3)c2c1 (centres unmarked) [CBK306493]	88.7
CNC(=O)C1CCCN1C(=O)c1nnn(Cc2ccc(F)cc2F)c1C (centres unmarked) [CBK306496]	93.2
CCc1ncsc1C(=O)NC1CCCN(c2ccn(C)n2)C1=O (centres unmarked) [CBK306498]	104
Cc1c(C(=O)N(C)C2CCNCC2)nnn1-c1ccc2ncccc2c1 [CBK306500C]	84.8
NCC(NC(=O)c1cnc(-c2ccncc2)s1)C1CCCCC1 (centres unmarked) [CBK306502C]	104
COCCN(Cc1nccs1)C(=O)C1CCc2nn(C)c(=O)n2C1 (centres unmarked) [CBK306506]	103
Cn1ncc(N2CCN(C(=O)CCN3CCCCCC3=O)CC2)cc1=O [CBK306508]	109
COC(=O)N1CCN(C(=O)c2cc(C(C)C)n3ncnc3n2)CC1 [CBK306509]	85.4
Cc1nn(C)c(C)c1CCc1nc(CN2CCN(C)CC2)no1 [CBK306510]	110
CCn1cc(CN(C)Cc2nccs2)c2cc(C(=O)O)ncc21 [CBK306512]	85.3
Cc1cnc2c(Cl)c(C(=O)N3CCN(C)C4(CCNCC4)C3)nn2c1 [CBK306513]	92.9
Cc1ccc(C(=O)NCc2cccnc2N(C)C2CCCCC2)cn1 [CBK306514]	116
COc1cc2c(cc1-c1cn(CCN3CCCOC3=O)nn1)CCC2 [CBK306515]	107
Cc1cn2cccc(C(=O)N3CCCCC3CCN3CCOCC3)c2n1 (centres unmarked) [CBK306518]	90.3
CCC(NC(=O)Nc1cc(N2CCOCC2)ccc1Cl)c1nccs1 (centres unmarked) [CBK306519]	93.2
OC(c1cccs1)C1CCN(Cc2ccc(-n3cncn3)cc2)CC1 (centres unmarked) [CBK306523]	97.8
O=c1c2sc(-c3ccc(F)cc3)cc2ncn1CC1(O)CCCNC1 (centres unmarked) [CBK306525]	88.4
CCCCC1C(=O)N(C)CCN1C(=O)c1cc(C)c(CC)n(C)c1=O (centres unmarked) [CBK306527]	91.2
CCn1ncnc1CN(C)Cc1ccc2c(c1)CN(C)C2 [CBK306530]	86.1
CCN(C(=O)Nc1cccnc1Oc1ccc(F)cc1)C1CCOCC1 [CBK306535]	89.5
Cc1nn(CC(=O)N(C)CCn2ccnc2C)c(=O)c2ccccc12 [CBK306536]	91.8
CN(C(=O)NC1CCN(Cc2cccc(O)c2)CC1)C1CCS(=O)(=O)C1 (centres unmarked) [CBK306538]	83.5

SMILES	viability at 28.5 h, 10 µM [%]
COCCNS(=O)(=O)c1cccc2c1CN(C(=O)c1ccccc1)CC2 [CBK306539]	106
Cc1ccc(F)c(OC2(C(=O)O)CCN(Cc3cccc(C)n3)CC2)c1 [CBK306541]	98.8
CC(C)Cn1cncc1CNC(=O)Nc1ccc2[nH]nnc2c1 [CBK306549]	91.9
Cc1c(C(=O)N2CCn3nc(CO)cc3C2)n(C)c2ccc(F)cc12 [CBK306552]	97.7
CCn1nc(CC(C)C)cc1C(=O)NCCc1cn2cccnc2n1 [CBK306553]	98.9
CN(c1ncccc1CNC(=O)c1cccnc1)C1CCCCC1 [CBK306555]	103
Nc1nc(NCCOc2ccccc2F)cc(C2CCOC2)n1 (centres unmarked) [CBK306559]	78.2
CCC(NC(=O)CCOC)c1cn2cccnc2n1 (centres unmarked) [CBK306560]	88.2
COc1ccc2c(c1)c(C(=O)N1CCC3(CCNCC3)CC1)c(C)n2C [CBK306562]	72.9
CCCn1nccc1C(=O)NC1CCCN(Cc2cccc(OC)c2)C1 (centres unmarked) [CBK306563]	84.9
COCCn1c(CO)nnc1[C@H]1C[C@@H](NC(=O)c2cc(C)ccc2Cl)C1 [CBK306564]	81.2
N#Cc1cccnc1N1CCC(NC(=O)c2ccc3nccn3c2)CC1 [CBK306566]	95.1
COc1cccc2ncn(C(C)c3nc(C)sc3C)c(=O)c12 (centres unmarked) [CBK306570]	109
O=C(N[C@@H]1CCOC[C@H]1Oc1ccc(CO)cc1)c1ccc(F)cc1 [CBK306571]	112
CCn1nc(C)cc1C(=O)N1Cc2cnn(Cc3ccc(F)cc3)c2C1 [CBK306574]	96.7
Cc1nc(N)nc(NCC2CCN(C3CC3)C2)c1Cl (centres unmarked) [CBK306575]	85.9
COCCN(Cc1cnn(C)c1)C(=O)Cc1ccccn1 [CBK306576]	112
OC[C@H]1CCN(Cc2cc(Cl)ccc2OCCCn2ccnc2)C[C@H]1O [CBK306581]	88.4
O=C(c1ccc(N2CCSCC2)nc1)N1CCC(N2CCOCC2)CC1 [CBK306582]	78.6
CCOc1ccc(-c2ccnc(N3C[C@@H](C)O[C@@H](C)C3)n2)cc1C(=O)O [CBK306584]	92.5
CN(Cc1nc(-c2ccccc2)no1)C(=O)C1CC2(CCNCC2)CN1 (centres unmarked) [CBK306585]	88.7
N#Cc1cccnc1N1CCC(NC(=O)c2cc(Cl)c[nH]c2=O)CC1 [CBK306586]	104
CC(=O)N1CC2(CCN(Cc3nccn3C(C)C)CC2)CC1C(=O)O (centres unmarked) [CBK306587]	93.7
